Measurements reported in US20240353397A1, “MARKERS OF RESISTANCE AND DISEASE TOLERANCE AND USES THEREOF” (priority 2021, published 2024).

What was measured:
resistance (R) level = assay: Connectivity map drug screen: effect of each drug on resistance level; type: cell-based; settings: for effect on resistance: connectivity map drug screen, at least 6 cell lines of different tissues; for Effect on resistance level: t-test, positive/negative sign = increasing/decreasing level following drug treatment
Excerpt: (§1) Using the drug screen of the connectivity map [Aravind Subramanian et al., Cell 171 (6): 1437-1452 (2017)], the effect of each drug on resistance and tolerance was next analyzed in at least 6 cell lines of different tissues. Identification of multiple drugs that display an effect on resistance/tolerance-related diseases allows (i) repurposing of drugs, and (ii) personalized prioritization of drugs. For instance, the screen tested three P glycoprotein inhibitors: zosuquidar, elacridar, and dofequidar. […] Thus, for specific disease in which P glycoprotein inhibitor is required, it is possible to prioritize drugs for each patient based on its baseline combination of resistance and tolerance state.

[1] = tested on: disease tolerance (T) level; assay: Connectivity map drug screen: effect of each drug on tolerance level; type: cell-based; settings: for effect on tolerance: connectivity map drug screen, at least 6 cell lines of different tissues, all tissues under study; for Effect on tolerance level: t-test, positive/negative sign = increasing/decreasing level following drug treatment
Excerpt: as §1

SMILES	effect on resistance (resistance (R) level)	Effect on resistance level (resistance (R) level; tissue: breast) [signed −log p-values]	Effect on resistance level (resistance (R) level; tissue: kidney) [signed −log p-values]	Effect on resistance level (resistance (R) level; tissue: large intestine) [signed −log p-values]	Effect on resistance level (resistance (R) level; tissue: pancreas) [signed −log p-values]	Effect on resistance level (resistance (R) level; tissue: prostate) [signed −log p-values]	Effect on resistance level (resistance (R) level; tissue: skin) [signed −log p-values]	effect on tolerance [1]	Effect on tolerance level ([1]; tissue: breast) [signed −log p-values]	Effect on tolerance level ([1]; tissue: kidney) [signed −log p-values]	Effect on tolerance level ([1]; tissue: large intestine) [signed −log p-values]	Effect on tolerance level ([1]; tissue: pancreas) [signed −log p-values]	Effect on tolerance level ([1]; tissue: prostate) [signed −log p-values]	Effect on tolerance level ([1]; tissue: skin) [signed −log p-values]
O=C(C(c1ccccc1)c1ccccc1)N1CCN(CC(O)COc2cccc3ncccc23)CC1 (stereo not shown) [dofequidar]	increasing resistance	0.89	7.33	9.14	5.84	3.47	9.17	increased tolerance	6.29	2.40	6.03	2.60	1.54	0.89
COc1cc2c(cc1OC)CN(CCc1ccc(NC(=O)c3cccc4c(=O)c5cccc(OC)c5[nH]c34)cc1)CC2 [elacridar]	increasing resistance	7.26	6.87	10.56	2.33	4.37	4.66	increased tolerance	1.84	8.48	13.47	−0.10	−1.43	2.77
O[C@@H](COc1cccc2ncccc12)CN1CCN([C@@H]2c3ccccc3[C@@H]3[C@H](c4ccccc42)C3(F)F)CC1 [zosuquidar]	–	0.13	−2.54	−7.65	−2.82	−2.05	−6.00	–	11.19	5.15	5.89	5.81	5.97	2.91
